Series [1] relates to Kanzawa spider mite (Tetranychus kanzawai kishida) which had acquired a strong resistance to chlorfenapyr. The series is described as follows: Miticidal effect against female imagines of chlorfenapyr-resistant Kanzawa spider mite, leaf disk spray test. The series is classed as in vivo. The text has this:
For a T value equal to 100, an additive action is indicated.

Series [2] has as its system susceptible strain of spider mite. The series is described as follows: LC50 against a susceptible strain of spider mite. The series is classed as in vivo.
[3] abbreviates: single test compound, female imago, chlorfenapyr-resistant strain, mortality two days after spray treatment, 25±1° C., probit analysis.

As for `COP(=S)(OC)Oc1ccc(C#N)cc1` [CYAP, O,O-Dimethyl-O-p-cyanophenylthiophosphate], the LC50 (as a rule, the concentration lethal to half of the exposed cells or organisms) in series [1] (setting [3]) stood at 3200 ppm.

In the case of `CCOCn1c(-c2ccc(Cl)cc2)c(C#N)c(Br)c1C(F)(F)F` [Chlorfenapyr, 4-Bromo-2-(4-chlorophenyl)-1-(ethoxymethyl)-5-(trifluoromethyl)pyrrole-3-carbonitrile], the “resistance to chlorfenapyr of the resistant strain versus susceptible strain” value in series [1] (LC50 resistant strain relative to susceptible strain) is on record as about 300 fold. Moreover, the figures for the LC50 in series [1] (setting [3]) and in series [2] were 1500 ppm and “about 5 ppm”, respectively. Turning to `CCOP(=S)(OCC)Oc1nc(Cl)c(Cl)cc1Cl` [Chlorpyrifos, O,O-Diethyl-O-3,5,6-trichloro-2-pyridylphosphorothioate], the LC50 in series [1] (setting [3]) is given as 3200 ppm. In series [1] (setting [3]), `COP(=S)(OC)Oc1nc(Cl)c(Cl)cc1Cl` [Chlorpyrifosmethyl, O,O-Dimethyl-O-3,5,6-trichloro-2-pyridylphosphorothioate] came in with a median lethal concentration (LC50) of 790 ppm. Same read-out and setting: then `CCOP(=S)(OCC)Oc1cc(C)nc(C(C)C)n1` [Diazinon, (2-isopropyl-4-methylpyrimidyl-6)-diethylthiophosphate], with 3200 ppm; and `CCOP(=S)(Oc1ccc([N+](=O)[O-])cc1)c1ccccc1` (stereo not drawn) [EPN, Ethyl p-nitrophenylthionobenzenephosphonate], with 3100 ppm.

On to `CCOP(=S)(OCC)SCSP(=S)(OCC)OCC` [Ethion, O,O,O′,O′-Tetraethyl-S,S′-methylenebisphosphorodithioate], for which the LC50 in series [1] (setting [3]) is 3100 ppm.

For `CC(C)OP(=O)(OC(C)C)SCc1ccccc1` [IBP, O,O-Diisopropyl-S-benzylthiophosphate], the LC50 in series [1] (setting [3]) was determined as 1300 ppm. As to `COP(=S)(OC)Oc1ccc([N+](=O)[O-])c(C)c1` [MEP, O,O-Dimethyl-O-(3-methyl-4-nitrophenyl)thiophosphate], the LC50 in series [1] (setting [3]) is recorded as 3200 ppm. Take `COP(=S)(OC)Oc1ccc(SC)c(C)c1` [MPP, O,O-Dimethyl-O-[3-methyl-4-(methylthio)phenyl]-thiophosphate]: in series [1] (setting [3]), the LC50 was 1100 ppm.

Regarding `CCOC(=O)CC(SP(=S)(OC)OC)C(=O)OCC` (stereo not drawn) [Malathon, Dimethyldicarbethoxyethyldithiophosphate], the 50% lethal concentration (LC50) in series [1] (setting [3]) turned out to be 3400 ppm. On to `CCOC(=O)C(SP(=S)(OC)OC)c1ccccc1` (stereo not drawn) [PAP, Ethyl dimethyldithiophosphorylphenylacetate], for which, in series [1] (setting [3]), the median lethal concentration (LC50) is recorded as 2000 ppm. `CCOP(=S)(OCC)SCn1c(=O)oc2cc(Cl)ccc21` [Phosalone, 3-Diethoxyphosphorylthiomethyl-6-chlorobenzoxazolone]: the LC50 in series [1] (setting [3]) is recorded as 350 ppm. Consider `CCCSP(=S)(OCC)Oc1ccc(Cl)cc1Cl` (stereo not drawn) [Prothiophos, O-2,4-Dichlorophenyl-O-ethyl-S-propylphosphorodithioate], for which the median lethal concentration (LC50) in series [1] (in vivo) was found to be 260 ppm. In the case of `CCOP(=S)(OCC)Oc1ccc(=O)n(-c2ccccc2)n1` [Pyridaphenthion, O,O-Diethyl-O-(3-oxo-2-phenyl-2H-pyridazin-6-yl) phosphorothioate], the LC50 in series [1] (setting [3]) is recorded as 1900 ppm.

Regarding `CCCSP(=S)(OCC)Oc1ccc(SC)cc1` (stereo not drawn) [Sulprofos, O-Ethyl-O-4-methylthiophenyl-S-propyl-phosphorodithioate], the 50% lethal concentration (LC50) in series [1] (setting [3]) is on record as 320 ppm.

Source of the values: patent US6649646B2, “Insecticidal and miticidal compositions” (priority 1996, dated 2003).
